Where two headings read alike, the source gives them in different places. Blank lines part the entries; values can stand above or below the molecule they belong to.
Tests used:
Type in all cases: biochemical
AXL = AXL (Homo sapiens, UniProt P30530); experiment: Nanosyn kinase profiling, % inhibition; conditions: panel of 230 kinases
Method: (§1) “Inhibiting kinase activity” means to decrease the production of an phosphor-peptide by a particular kinase that can be separated by analytical techniques. For example, a comprehensive platform of kinase, protease, phosphatase and epigenetic assays that utilizes cutting-edge microfluidics and informatics tools to provide accurate and rapid results. Profiling data in this application were determined using these techniques at Nanosyn Inc. IC50 data were provided by Reaction Biology Inc using a P33 radiolabeled kinase assay.
(§2) More modest activity for Aurora-A, FLT-1/4, KDR, KIT, PDGFRs was accompanied by better activity for B-Raf mutant and wild-type forms, Modest inhibition of MEK-1, BTK, c-Met, RET, and RON was also observed. […] Moreover, the observed inhibition of MEK-1 with 1-12 and TYK2 with I-6 represents additional activities against kinases for which no type-II inhibitors have been reported to date. […] To further evaluate the scope of inhibition, I-6 was evaluated against a larger panel of 230 kinases, Table-22.

FER = FER (Homo sapiens, UniProt P16591); experiment: Nanosyn kinase profiling, % inhibition; conditions: panel of 230 kinases
Method: as §1, §2

EPH-A4 = EPH-A4 (Homo sapiens, UniProt P54764); experiment: Nanosyn kinase profiling, % inhibition; conditions: panel of 230 kinases
Method: as §1, §2

MEK2 = MEK2 (Homo sapiens, UniProt P36507); experiment: Nanosyn kinase profiling, % inhibition; conditions: panel of 230 kinases
Method: as §1, §2

EPH-A1 = EPH-A1 (Homo sapiens, UniProt P21709); experiment: Nanosyn kinase profiling, % inhibition; conditions: panel of 230 kinases
Method: as §1, §2

JAK2 = JAK2 (Homo sapiens, UniProt O60674); experiment: Nanosyn kinase profiling, % inhibition; conditions: panel of 230 kinases
Method: as §1, §2

ABL-T315I = ABL-T315I (Homo sapiens, UniProt P00519, T315I); experiment: Nanosyn kinase profiling, % inhibition; conditions: panel of 230 kinases
Method: as §1, §2

PRKD3 = PRKD3 (Homo sapiens, UniProt O94806); experiment: Nanosyn kinase profiling, % inhibition; conditions: panel of 230 kinases
Method: as §1, §2

MKNK1 = target: T1, MKNK1 (Homo sapiens, UniProt Q9BUB5); experiment: Nanosyn kinase profiling, % inhibition; conditions: panel of 230 kinases
T1 construct: literature Ambit Biosciences
Method: as §1, §2

MUSK = MUSK (Homo sapiens, UniProt O15146); experiment: Nanosyn kinase profiling, % inhibition; conditions: panel of 230 kinases
Method: as §1, §2

HIPK3 = HIPK3 (Homo sapiens, UniProt Q9H422); experiment: Nanosyn kinase profiling, % inhibition; conditions: panel of 230 kinases
Method: as §1, §2

YES = YES (Homo sapiens, UniProt P07947); experiment: Nanosyn kinase profiling, % inhibition; conditions: panel of 230 kinases
Method: as §1, §2

LOK = LOK (Homo sapiens, UniProt O94804); experiment: Nanosyn kinase profiling, % inhibition; conditions: panel of 230 kinases
Method: as §1, §2

EPH-B1 = EPH-B1 (Homo sapiens, UniProt P54762); experiment: Nanosyn kinase profiling, % inhibition; conditions: panel of 230 kinases
Method: as §1, §2

EPH-B4 = EPH-B4 (Homo sapiens, UniProt P54760); experiment: Nanosyn kinase profiling, % inhibition; conditions: panel of 230 kinases
Method: as §1, §2

PTK5 = PTK5 (Homo sapiens, UniProt P42685); experiment: Nanosyn kinase profiling, % inhibition; conditions: panel of 230 kinases
Method: as §1, §2

SRMS = SRMS (Homo sapiens, UniProt Q9H3Y6); experiment: Nanosyn kinase profiling, % inhibition; conditions: panel of 230 kinases
Method: as §1, §2

SIK = SIK (Homo sapiens, UniProt P57059); experiment: Nanosyn kinase profiling, % inhibition; conditions: panel of 230 kinases
Method: as §1, §2

MAP4K5 = MAP4K5 (Homo sapiens, UniProt Q9Y4K4); experiment: Nanosyn kinase profiling, % inhibition; conditions: panel of 230 kinases
Method: as §1, §2

TRKC = TRKC (Homo sapiens, UniProt Q16288); experiment: Nanosyn kinase profiling, % inhibition; conditions: panel of 230 kinases
Method: as §1, §2

EPH-A5 = EPH-A5 (Homo sapiens, UniProt P54756); experiment: Nanosyn kinase profiling, % inhibition; conditions: panel of 230 kinases
Method: as §1, §2

MER = MER (Homo sapiens, UniProt Q12866); experiment: Nanosyn kinase profiling, % inhibition; conditions: panel of 230 kinases
Method: as §1, §2

PAK1 = PAK1 (Homo sapiens, UniProt Q13153); experiment: Nanosyn kinase profiling, % inhibition; conditions: panel of 230 kinases
Method: as §1, §2

TRKA = TRKA (Homo sapiens, UniProt P04629); experiment: Nanosyn kinase profiling, % inhibition; conditions: panel of 230 kinases
Method: as §1, §2

TYRO3 = TYRO3 (Homo sapiens, UniProt Q06418); experiment: Nanosyn kinase profiling, % inhibition; conditions: panel of 230 kinases
Method: as §1, §2

EPH-B2 = EPH-B2 (Homo sapiens, UniProt P29323); experiment: Nanosyn kinase profiling, % inhibition; conditions: panel of 230 kinases
Method: as §1, §2

FGR = FGR (Homo sapiens, UniProt P09769); experiment: Nanosyn kinase profiling, % inhibition; conditions: panel of 230 kinases
Method: as §1, §2

SPHK2 = SPHK2 (Homo sapiens, UniProt Q9NRA0); experiment: Nanosyn kinase profiling, % inhibition; conditions: panel of 230 kinases
Method: as §1, §2

SRC = SRC (Homo sapiens, UniProt P12931); experiment: Nanosyn kinase profiling, % inhibition; conditions: panel of 230 kinases
Method: as §1, §2

EPH-A8 = EPH-A8 (Homo sapiens, UniProt P29322); experiment: Nanosyn kinase profiling, % inhibition; conditions: panel of 230 kinases
Method: as §1, §2

ABL1 = ABL1 (Homo sapiens, UniProt P00519); experiment: Nanosyn kinase profiling, % inhibition; conditions: panel of 230 kinases
Method: as §1, §2

PI3K-δ = target: T2, PI3K-δ (Homo sapiens, UniProt O00329); experiment: Reaction Biology P33 radiolabeled kinase assay, IC50 and time dependence; conditions: for IC50: ATP 10 uM, read-out: Compound IC50* PI3K-δ
T2 construct: purchased Reaction Biology Inc (contract assay)
Method: as §1
(§3) The observation of potency and isoform selectivity with time-dependency for PI3K-γ appears to be unprecedented in the literature. In addition, these activities combined with inhibition of p38-α, Raf-1, DDR and CSF-1R, would be complimentary and potentially synergistic activities for both the treatment of certain inflammation based conditions and cancers.

PDGFR-β = PDGFR-β (Homo sapiens, UniProt P09619); experiment: as above; conditions: for IC50: ATP 10 uM, read-out: Compound IC50* PDGFR-β
Method: as §1, §3

BRAF (V599E) = target: T3, BRAF (V599E) (Homo sapiens, UniProt P15056, V600E); experiment: as above; conditions: for IC50: ATP 10 uM, read-out: Compound IC50* BRAF (V599E)
T3 construct: purchased Reaction Biology Inc (contract assay)
Method: as §1, §3

T2 sequence (O00329 whole entry): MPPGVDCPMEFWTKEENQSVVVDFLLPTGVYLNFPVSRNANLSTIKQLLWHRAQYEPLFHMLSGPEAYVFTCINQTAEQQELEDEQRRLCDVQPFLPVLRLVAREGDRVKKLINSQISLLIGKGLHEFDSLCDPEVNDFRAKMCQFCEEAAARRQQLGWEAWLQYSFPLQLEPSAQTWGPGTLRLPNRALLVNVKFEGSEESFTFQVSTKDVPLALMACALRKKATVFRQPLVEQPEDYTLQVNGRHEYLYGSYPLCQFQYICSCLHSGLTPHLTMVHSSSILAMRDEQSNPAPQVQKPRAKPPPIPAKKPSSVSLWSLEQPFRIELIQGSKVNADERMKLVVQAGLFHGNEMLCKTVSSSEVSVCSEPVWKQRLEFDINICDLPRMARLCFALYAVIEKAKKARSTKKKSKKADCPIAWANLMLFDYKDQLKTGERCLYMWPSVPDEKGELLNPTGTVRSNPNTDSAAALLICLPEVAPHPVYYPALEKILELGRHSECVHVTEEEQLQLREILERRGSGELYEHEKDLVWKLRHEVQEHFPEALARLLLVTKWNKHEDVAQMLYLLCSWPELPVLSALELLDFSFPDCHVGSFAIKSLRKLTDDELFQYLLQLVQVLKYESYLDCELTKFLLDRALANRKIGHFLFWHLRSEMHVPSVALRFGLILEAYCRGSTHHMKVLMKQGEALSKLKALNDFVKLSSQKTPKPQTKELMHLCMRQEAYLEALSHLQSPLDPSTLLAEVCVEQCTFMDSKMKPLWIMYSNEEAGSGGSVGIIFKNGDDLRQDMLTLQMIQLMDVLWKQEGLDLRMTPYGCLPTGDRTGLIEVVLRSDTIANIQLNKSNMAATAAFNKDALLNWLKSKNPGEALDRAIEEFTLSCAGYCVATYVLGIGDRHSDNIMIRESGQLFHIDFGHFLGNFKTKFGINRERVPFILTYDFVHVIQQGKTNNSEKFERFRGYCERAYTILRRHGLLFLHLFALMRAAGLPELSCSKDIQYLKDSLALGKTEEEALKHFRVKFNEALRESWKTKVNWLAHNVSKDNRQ
T2 sequence (P27986 whole entry partner): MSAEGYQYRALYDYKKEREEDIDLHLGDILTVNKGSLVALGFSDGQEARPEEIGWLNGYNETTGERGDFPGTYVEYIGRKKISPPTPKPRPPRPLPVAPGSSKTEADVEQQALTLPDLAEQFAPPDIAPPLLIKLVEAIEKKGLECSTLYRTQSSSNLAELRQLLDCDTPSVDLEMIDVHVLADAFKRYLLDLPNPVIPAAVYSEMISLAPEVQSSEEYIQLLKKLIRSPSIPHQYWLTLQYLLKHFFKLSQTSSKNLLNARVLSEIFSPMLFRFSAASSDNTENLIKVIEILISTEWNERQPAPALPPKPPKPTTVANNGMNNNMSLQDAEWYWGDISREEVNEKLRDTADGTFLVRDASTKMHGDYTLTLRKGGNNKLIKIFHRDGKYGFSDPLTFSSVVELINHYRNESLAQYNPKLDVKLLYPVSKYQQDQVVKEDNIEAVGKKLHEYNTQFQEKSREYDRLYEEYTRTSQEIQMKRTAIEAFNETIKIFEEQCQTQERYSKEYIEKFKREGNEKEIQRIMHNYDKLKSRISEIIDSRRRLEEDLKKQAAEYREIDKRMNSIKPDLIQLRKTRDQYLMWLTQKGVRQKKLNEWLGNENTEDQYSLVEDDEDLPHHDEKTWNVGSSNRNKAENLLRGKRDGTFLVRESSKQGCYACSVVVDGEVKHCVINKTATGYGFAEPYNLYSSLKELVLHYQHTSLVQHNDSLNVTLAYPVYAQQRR
T3 sequence (P15056 2-766 V600E): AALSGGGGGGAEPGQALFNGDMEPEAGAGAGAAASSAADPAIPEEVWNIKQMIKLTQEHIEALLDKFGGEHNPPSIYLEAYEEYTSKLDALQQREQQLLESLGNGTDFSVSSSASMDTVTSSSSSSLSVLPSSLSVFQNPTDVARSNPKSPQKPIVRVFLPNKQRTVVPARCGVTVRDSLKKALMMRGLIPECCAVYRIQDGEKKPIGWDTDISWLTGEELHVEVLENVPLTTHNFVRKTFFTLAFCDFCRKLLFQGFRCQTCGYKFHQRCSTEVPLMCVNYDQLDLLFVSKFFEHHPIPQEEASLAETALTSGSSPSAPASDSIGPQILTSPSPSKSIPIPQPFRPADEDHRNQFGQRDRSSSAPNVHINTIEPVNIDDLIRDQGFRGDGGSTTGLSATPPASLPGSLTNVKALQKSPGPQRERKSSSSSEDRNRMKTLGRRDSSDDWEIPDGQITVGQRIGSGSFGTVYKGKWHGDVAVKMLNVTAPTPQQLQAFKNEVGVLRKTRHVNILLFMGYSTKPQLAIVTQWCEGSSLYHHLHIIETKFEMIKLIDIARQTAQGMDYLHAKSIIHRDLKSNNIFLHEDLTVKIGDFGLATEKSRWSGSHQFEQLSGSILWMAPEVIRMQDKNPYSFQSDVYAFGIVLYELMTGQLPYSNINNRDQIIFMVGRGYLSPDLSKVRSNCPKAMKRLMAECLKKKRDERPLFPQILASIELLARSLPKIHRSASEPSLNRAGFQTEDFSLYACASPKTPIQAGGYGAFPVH
Chain of PDGFR-β (P09619 33-1106): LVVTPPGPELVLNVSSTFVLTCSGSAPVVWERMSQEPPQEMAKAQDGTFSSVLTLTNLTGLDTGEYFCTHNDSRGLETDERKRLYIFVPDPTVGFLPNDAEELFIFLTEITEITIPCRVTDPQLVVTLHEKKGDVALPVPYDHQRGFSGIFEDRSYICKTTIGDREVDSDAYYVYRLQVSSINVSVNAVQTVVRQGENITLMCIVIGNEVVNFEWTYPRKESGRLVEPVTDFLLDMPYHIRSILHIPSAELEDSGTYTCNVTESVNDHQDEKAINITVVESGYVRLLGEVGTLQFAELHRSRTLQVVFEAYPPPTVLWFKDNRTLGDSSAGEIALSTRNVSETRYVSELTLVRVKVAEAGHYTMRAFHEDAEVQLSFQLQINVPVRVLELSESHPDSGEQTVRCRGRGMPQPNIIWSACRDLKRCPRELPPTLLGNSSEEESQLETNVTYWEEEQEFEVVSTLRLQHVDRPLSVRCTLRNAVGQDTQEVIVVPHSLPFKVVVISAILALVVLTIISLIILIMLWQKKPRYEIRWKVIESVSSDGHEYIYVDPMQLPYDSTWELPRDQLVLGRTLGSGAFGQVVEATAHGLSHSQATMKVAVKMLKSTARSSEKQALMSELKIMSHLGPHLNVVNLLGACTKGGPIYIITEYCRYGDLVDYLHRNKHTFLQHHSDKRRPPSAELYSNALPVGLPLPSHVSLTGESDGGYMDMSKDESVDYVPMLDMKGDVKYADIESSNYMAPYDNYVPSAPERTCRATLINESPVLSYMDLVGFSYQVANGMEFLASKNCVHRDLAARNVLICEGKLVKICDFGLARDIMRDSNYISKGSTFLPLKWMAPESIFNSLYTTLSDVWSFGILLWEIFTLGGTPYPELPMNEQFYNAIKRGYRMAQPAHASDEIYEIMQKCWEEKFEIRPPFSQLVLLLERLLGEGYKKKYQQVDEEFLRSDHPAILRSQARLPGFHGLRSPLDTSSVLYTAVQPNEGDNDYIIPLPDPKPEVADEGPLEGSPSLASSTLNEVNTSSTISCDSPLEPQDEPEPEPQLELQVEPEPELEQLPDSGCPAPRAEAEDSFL
Chain of EPH-A8 (P29322 28-1005): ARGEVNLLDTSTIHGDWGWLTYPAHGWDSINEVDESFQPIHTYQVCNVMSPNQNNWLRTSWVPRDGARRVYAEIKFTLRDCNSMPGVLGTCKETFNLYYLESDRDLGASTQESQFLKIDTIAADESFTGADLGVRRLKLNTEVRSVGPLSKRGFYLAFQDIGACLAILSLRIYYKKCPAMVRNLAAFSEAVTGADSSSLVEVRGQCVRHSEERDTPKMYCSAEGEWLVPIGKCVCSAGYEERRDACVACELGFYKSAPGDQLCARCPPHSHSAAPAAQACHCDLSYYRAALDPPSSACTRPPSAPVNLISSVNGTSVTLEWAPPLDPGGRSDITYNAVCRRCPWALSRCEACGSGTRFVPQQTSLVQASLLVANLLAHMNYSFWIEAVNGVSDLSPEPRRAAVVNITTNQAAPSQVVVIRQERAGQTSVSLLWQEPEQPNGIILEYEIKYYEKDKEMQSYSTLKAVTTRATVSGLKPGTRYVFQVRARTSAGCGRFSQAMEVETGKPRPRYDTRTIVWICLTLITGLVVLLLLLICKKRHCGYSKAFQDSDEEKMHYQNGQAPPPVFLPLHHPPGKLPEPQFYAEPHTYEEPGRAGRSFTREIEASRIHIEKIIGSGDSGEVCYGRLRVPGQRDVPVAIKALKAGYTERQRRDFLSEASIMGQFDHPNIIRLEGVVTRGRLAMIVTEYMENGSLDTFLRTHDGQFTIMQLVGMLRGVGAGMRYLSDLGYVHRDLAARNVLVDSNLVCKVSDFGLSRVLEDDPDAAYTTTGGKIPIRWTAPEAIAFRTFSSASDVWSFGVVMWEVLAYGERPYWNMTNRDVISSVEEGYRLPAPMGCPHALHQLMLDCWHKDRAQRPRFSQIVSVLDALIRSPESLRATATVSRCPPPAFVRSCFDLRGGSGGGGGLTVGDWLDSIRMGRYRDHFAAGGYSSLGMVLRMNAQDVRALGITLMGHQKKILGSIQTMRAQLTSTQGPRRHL
T1 sequence (Q9BUB5 whole entry): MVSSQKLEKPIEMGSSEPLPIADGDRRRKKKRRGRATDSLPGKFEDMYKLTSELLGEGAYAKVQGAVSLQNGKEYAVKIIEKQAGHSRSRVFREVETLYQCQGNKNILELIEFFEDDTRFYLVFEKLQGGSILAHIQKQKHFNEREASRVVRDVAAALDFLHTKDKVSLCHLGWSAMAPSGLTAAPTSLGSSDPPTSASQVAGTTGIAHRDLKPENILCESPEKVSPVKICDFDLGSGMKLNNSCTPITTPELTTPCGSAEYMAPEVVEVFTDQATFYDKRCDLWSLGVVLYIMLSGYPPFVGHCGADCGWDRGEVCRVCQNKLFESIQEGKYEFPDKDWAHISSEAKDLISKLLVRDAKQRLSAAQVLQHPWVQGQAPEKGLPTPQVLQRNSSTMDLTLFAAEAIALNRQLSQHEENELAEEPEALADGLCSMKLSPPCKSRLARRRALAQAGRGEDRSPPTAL

inhibition at 5 µM (AXL): ≥ 50%
inhibition at 5 µM (FER): ≥ 50%
inhibition at 5 µM (EPH-A4): ≥ 50%
inhibition at 5 µM (MEK2): ≥ 50%
inhibition at 5 µM (EPH-A1): ≥ 50%
inhibition at 5 µM (JAK2): ≥ 50%
inhibition at 5 µM (ABL-T315I): ≥ 50%
inhibition at 5 µM (PRKD3): ≥ 50%
inhibition at 5 µM (MKNK1): ≥ 50%
inhibition at 5 µM (MUSK): ≥ 50%
inhibition at 5 µM (HIPK3): ≥ 50%
inhibition at 5 µM (YES): ≥ 50%
inhibition at 5 µM (LOK): ≥ 50%
inhibition at 5 µM (EPH-B1): ≥ 50%
inhibition at 5 µM (EPH-B4): ≥ 50%
inhibition at 5 µM (PTK5): ≥ 50%
inhibition at 5 µM (SRMS): ≥ 50%
inhibition at 5 µM (SIK): ≥ 50%
inhibition at 5 µM (MAP4K5): ≥ 50%
inhibition at 5 µM (TRKC): ≥ 50%
inhibition at 5 µM (EPH-A5): ≥ 50%
inhibition at 5 µM (MER): ≥ 50%
inhibition at 5 µM (PAK1): ≥ 50%
inhibition at 5 µM (TRKA): ≥ 50%
inhibition at 5 µM (TYRO3): ≥ 50%
inhibition at 5 µM (EPH-B2): ≥ 50%
inhibition at 5 µM (FGR): ≥ 50%
inhibition at 5 µM (SPHK2): ≥ 50%
inhibition at 5 µM (SRC): ≥ 50%
inhibition at 5 µM (EPH-A8): ≥ 50%
inhibition at 5 µM (ABL1): ≥ 50%
SMILES: CNC(=O)c1cc(Oc2ccc(NC(=O)c3nc(C(F)(F)F)[nH]c3-c3ccc(F)cc3)cc2)ccn1 [Inhibitor I-6, 4-(4-{[5-(4-Fluoro-phenyl)-2-trifluoromethyl-3H-imidazole-4-carbonyl]-amino}-phenoxy)-pyridine-2-carboxylic acid methylamide]

Time Dependence Observed? PI3K-δ (PI3K-δ; 15 vs 60 Min preincubation): Yes
IC50 (PI3K-δ; preincubation 15 Min): 3180 nM
IC50 (PI3K-δ; preincubation 60 Min): 1120 nM
Time Dependence Observed? PDGFR-β (PDGFR-β; 15 vs 60 Min preincubation): No
IC50 (PDGFR-β; preincubation 15 Min): 2010 nM
IC50 (PDGFR-β; preincubation 60 Min): 2510 nM
Time Dependence Observed? BRAF (V599E) (BRAF (V599E); 15 vs 60 Min preincubation): No
IC50 (BRAF (V599E); preincubation 15 Min): 194 nM
IC50 (BRAF (V599E); preincubation 60 Min): 194 nM
SMILES: Cc1ccc(NC(=O)c2nc(S(C)(=O)=O)[nH]c2-c2ccc(F)cc2)cc1Nc1nccc(-c2cccnc2)n1 [Inhibitor I-14, 3-(4-(pyridin-3-yl)-pyrimidinyl-2-yl)amino-4-methyl-analine, 5-(4-Fluorophenyl)-2-(methylsulfonyl)-1H-imidazole-4-carboxamide]
